How the values were obtained:
[1] = test system: TPA-induced inflammation of the mouse ear; assay: Anti-inflammatory activity, TPA-induced inflammation of the mouse ear; type: in vivo, ICR mice; details: for Anti-inflammatory activity (TPA-induced mouse ear inflammation): 0.5% in acetone, 20 μl, topical to ear
Description: The adenosine derivatives of the present invention were examined for anti-inflammatory activity in the following animal test. Seven-week-old male ICR mice were treated with TPA (12-O-tetradecanoylphorbol-13-acetate, 20 l) in the right ear. […] Hydrocortisone was used at the same concentration as a control.
6 hrs after treatment with TPA, the mice were secondarily treated with the adenosine derivatives of the present invention. 24 hrs after TPA treatment, test animals were euthanized using a cervical dislocation method. Samples were obtained from the right ear using a 6 mm diameter punch. The activity was observed by measuring the ear sample using a microbalance. Percentages of inhibition were calculated using the following Equation 1. The compositions and amounts used in these experiments are summarized in Tables 14 to 17 and the anti-inflammatory activities thereof are shown in FIGS. 10 to 13.

[2] = patients with liver cirrhosis; cited from earlier work
ICR mice = assay: Toxicity after intraperitoneal injection, 24 hrs observation, mice; type: in vivo; details: intraperitoneal 20, 10 and 1 mg/kg
Description: (§1) The Adenosine Derivative of the present invention were assayed for cytotoxicity in animals.

Sprague Dawley rats = assay: Toxicity after intraperitoneal injection, 24 hrs observation, rats; type: in vivo; details: SD rats, intraperitoneal 20, 10 and 1 mg/kg
Description: as §1

[3] = biological target: T1, human A1 adenosine receptor (hA1) (Homo sapiens, UniProt P30542); assay: Binding affinity for A1 adenosine receptor ([3H]CCPA, CHO cells); details: percentage inhibition of specific binding in the presence of 10 μM of the unlabeled ligand NECA
T1 construct: expressed in transfected cells; host or cells: CHO cells (ATCC No. CCL-61)
T1 sequence (P30542 1-326): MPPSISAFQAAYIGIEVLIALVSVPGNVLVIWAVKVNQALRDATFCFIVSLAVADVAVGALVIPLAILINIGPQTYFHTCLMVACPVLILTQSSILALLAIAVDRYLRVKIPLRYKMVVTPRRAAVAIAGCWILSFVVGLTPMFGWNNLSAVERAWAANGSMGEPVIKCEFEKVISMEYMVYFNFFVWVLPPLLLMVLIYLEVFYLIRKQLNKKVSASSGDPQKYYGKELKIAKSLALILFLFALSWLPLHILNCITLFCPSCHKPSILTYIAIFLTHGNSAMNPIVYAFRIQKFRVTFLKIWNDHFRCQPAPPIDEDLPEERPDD
Description: CHO cells (ATCC No. CCL-61), in which A1 and A3 adenosine receptors were expressed, were cultured in F-12 media (Gibco, U.S.A.) supplemented with 10% fetal bovine serum (FBS) and penicillin/streptomycin (100 units/ml and 100 g/ml), at 37° C. in a 5% CO2 atmosphere. […] Incubation for 1 hr in a 37° C. incubator was followed by rapid filtration in a vacuum using a cell collector (TOMTEC, U.S.A.). Subsequently, the test tubes were washed three times with 3 ml of the buffer before radioactivity was measured using a γ-counter. […] Ki for binding affinity was determined by subtracting the non-specific binding value from the total binding value. On the basis of the specific binding values, the samples were analyzed for binding affinity to various adenosine receptors.

[4] = biological target: T2, human A2A adenosine receptor (hA2A) (Homo sapiens, UniProt P29274); assay: Binding affinity for A2A adenosine receptor ([3H]CGS-21680, HEK 293 cell); details: percentage inhibition of specific binding of 10 μM labeled ligand in the presence of 10 μM of the unlabeled ligand NECA
T2 construct: expressed in transfected cells; host or cells: HEK 293 cell
T2 sequence (P29274 whole entry): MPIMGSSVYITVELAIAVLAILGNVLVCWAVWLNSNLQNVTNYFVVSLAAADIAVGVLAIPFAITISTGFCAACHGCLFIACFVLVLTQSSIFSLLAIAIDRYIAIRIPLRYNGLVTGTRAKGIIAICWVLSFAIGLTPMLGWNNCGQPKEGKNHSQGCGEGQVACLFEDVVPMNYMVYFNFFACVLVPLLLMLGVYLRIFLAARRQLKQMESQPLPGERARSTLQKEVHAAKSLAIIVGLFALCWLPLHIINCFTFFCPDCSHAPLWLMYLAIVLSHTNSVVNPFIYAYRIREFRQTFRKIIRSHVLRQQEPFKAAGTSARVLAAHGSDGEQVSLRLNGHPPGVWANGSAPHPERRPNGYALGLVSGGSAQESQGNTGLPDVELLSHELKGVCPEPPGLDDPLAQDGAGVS
Description: Each of the compounds synthesized in the examples was measured for IC50 at least 6 different concentrations, and the measurements were analyzed using SigmaPlot software to determine Ki values.

**Q.** Which “Percentage of inflammation inhibition” value ([1]; 0.5% in a mixture of DMSO and acetone (1:9)) does the source give for `O[C@@H]1[C@H](O)CO[C@H]1n1cnc2c(NCc3cccc(I)c3)nc(Cl)nc21` [Example 16, (2R,3R,4R)-2-(2-chloro-6-(3-iodobenzylamino)-9H-purin-9-yl)tetrahydrofuran-3,4-diol] here?
**A.** The value was 79%.

**Q.** With `COc1ccc(Cl)cc1CNc1nc(Cl)nc2c1ncn2[C@@H]1SC[C@@H](O)[C@H]1O` [Example 6, (2R,3R,4S)-2-(2-chloro-6-(5-chloro-2-methoxybenzylamino)-9H-purin-9-yl)tetrahydrothiophen-3,4-diol] as the molecule, how does the “Percentage of inflammation inhibition” value ([1]; 0.5% in a mixture of distilled water and acetone (1:4)) read?
**A.** Its value is 34%.

**Q.** What about the “Anti-inflammatory activity (TPA-induced mouse ear inflammation)” value [1] of the same molecule?
**A.** The value was “increased”.

**Q.** With `O[C@@H]1[C@H](O)CS[C@H]1n1cnc2c(NCc3cccc(F)c3)nc(Cl)nc21` [Example 1, (2R,3R,4S)-2-(2-chloro-6-(3-fluorobenzylamino)-9H-purin-9-yl)tetrahydrothiophen-3,4-diol] as the molecule, how does the “Anti-inflammatory activity (TPA-induced mouse ear inflammation)” value [1] read?
**A.** The value was “increased”.

**Q.** For `CC[C@H]1[C@@H](O)[C@@H]2[C@H](CC[C@]3(C)[C@@H]([C@H](C)CCC(=O)O)CC[C@@H]23)[C@@]2(C)CC[C@@H](O)C[C@@H]12` [OCA, obeticholic acid], which “Liver safety in patients” value [2] is on record?
**A.** Its value is “may induce acute liver failure in patients with liver cirrhosis”.

**Q.** Which “Weight gain or feed intake versus control group” value (ICR mice) does the source give for `O[C@@H]1[C@H](O)CS[C@H]1n1cnc2c(NCc3cccc(Cl)c3)nc(Cl)nc21` [Example 2, (2R,3R,4S)-2-(2-chloro-6-(3-chlorobenzylamino)-9H-purin-9-yl)tetrahydrothiophen-3,4-diol] here?
**A.** The value was “No difference in weight gain or feed intake”.

**Q.** What about the “Weight gain or feed intake versus control group” value (Sprague Dawley rats) of the same molecule?
**A.** Its value is “No difference in weight gain or feed intake”.

**Q.** And the “% inhibition of specific binding, hA1” value [3]?
**A.** The value was 37.9%.

**Q.** And the “% inhibition of specific binding, hA2A” value [4]?
**A.** Its value is 17.7%.
